Read-outs that look alike come from different tables or passages of the source.
Experiments:
[1] = target: CDK6/cyclin D3 (Homo sapiens (Human), UniProt Q00534); experiment: CDK6/Cyclin D3 mobility shift assay; settings: Biochemical Assay: CDK6/cyclin D3
Source text: CDK6/Cyclin D3 Mobility Shift Assay

[2] = target: CDK9 (Homo sapiens (Human), UniProt P50750); experiment: CDK9 biochemical assay
[3] = target: T1, GSK3β (H350L) (Homo sapiens (Human), UniProt P49841); settings: read-out: GSK3β Ki
Experimental: (§1) The assay was initiated with the addition of ATP, following 15 minutes pre-incubation of enzyme and inhibitor at room temperature in the reaction mixture. The reaction was stopped after 30 minutes at room temperature by the addition of 50 μL of 80 mM EDTA.

[4] = target: CDK2/Cyclin E1 full length (Homo sapiens (Human), UniProt P24941); experiment: CDK2/Cyclin E1 full length mobility shift assay; assay type: biochemical
[5] = target: T1, GSK3β (H350L); experiment: biochemical; settings: GSK3β Ki (nM)
Experimental: as §1

T1 sequence (P49841 whole entry, stated change not applied): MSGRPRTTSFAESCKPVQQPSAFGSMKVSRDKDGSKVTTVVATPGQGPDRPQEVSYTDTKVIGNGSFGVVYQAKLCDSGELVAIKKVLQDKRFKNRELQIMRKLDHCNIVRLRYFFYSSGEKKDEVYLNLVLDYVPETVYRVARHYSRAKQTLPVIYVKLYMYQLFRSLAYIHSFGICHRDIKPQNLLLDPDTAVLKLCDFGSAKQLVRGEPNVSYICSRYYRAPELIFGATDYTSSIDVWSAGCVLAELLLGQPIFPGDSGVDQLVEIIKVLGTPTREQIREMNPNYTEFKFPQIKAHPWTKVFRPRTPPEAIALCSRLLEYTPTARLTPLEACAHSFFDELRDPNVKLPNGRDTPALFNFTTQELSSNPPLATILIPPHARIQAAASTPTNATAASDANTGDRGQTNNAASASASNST
CDK6/cyclin D3, sequence (Q00534 whole entry, looked up): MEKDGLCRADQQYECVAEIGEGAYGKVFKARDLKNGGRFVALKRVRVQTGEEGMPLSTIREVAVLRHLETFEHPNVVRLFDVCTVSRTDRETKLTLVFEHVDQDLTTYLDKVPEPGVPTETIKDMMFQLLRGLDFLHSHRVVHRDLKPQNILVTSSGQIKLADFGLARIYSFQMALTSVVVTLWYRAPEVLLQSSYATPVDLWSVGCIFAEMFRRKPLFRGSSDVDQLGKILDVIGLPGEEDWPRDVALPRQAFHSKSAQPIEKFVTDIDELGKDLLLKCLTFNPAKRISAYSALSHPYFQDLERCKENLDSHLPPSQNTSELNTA
CDK6/cyclin D3, sequence (P30281 whole entry partner, looked up): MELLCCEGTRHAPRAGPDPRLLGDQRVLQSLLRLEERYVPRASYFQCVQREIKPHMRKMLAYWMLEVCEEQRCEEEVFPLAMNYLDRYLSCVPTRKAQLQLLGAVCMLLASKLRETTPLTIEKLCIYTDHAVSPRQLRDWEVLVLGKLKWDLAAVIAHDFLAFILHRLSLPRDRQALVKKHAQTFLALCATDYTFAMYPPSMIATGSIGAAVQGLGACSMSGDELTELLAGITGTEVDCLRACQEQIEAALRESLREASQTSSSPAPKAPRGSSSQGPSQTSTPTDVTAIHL
CDK9, sequence (P50750 whole entry, looked up): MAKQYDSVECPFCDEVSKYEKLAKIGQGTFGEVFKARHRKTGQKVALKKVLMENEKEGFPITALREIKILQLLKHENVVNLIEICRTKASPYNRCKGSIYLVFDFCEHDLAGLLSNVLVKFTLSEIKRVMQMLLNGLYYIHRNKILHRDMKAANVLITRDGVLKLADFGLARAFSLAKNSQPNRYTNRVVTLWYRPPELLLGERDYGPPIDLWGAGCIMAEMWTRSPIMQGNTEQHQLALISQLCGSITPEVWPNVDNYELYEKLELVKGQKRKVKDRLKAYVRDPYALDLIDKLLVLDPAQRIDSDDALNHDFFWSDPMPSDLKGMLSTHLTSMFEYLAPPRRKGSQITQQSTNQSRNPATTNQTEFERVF
CDK9, sequence (O60563 whole entry partner, looked up): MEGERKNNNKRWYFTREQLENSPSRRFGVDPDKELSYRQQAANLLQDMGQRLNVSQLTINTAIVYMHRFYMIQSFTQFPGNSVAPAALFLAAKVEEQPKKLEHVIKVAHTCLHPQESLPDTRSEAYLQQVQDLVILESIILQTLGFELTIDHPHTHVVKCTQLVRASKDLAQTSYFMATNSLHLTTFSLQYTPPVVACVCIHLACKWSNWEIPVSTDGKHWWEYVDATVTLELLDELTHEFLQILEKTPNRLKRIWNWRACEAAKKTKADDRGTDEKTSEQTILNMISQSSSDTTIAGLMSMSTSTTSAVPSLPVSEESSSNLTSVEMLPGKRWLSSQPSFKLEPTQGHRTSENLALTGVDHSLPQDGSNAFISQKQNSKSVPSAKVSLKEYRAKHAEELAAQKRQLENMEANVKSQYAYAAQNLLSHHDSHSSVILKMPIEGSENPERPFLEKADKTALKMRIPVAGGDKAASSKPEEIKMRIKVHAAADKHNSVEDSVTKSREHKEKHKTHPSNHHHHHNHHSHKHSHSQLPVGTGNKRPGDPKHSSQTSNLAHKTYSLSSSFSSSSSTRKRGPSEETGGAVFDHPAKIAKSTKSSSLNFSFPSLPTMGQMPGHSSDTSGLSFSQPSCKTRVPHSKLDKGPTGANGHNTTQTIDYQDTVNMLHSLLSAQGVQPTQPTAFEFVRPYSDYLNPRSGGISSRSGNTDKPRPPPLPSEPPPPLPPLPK

Compound | Ki [1] | Ki [2] | Ki [3] | Ki [4] | Ki [5]
COCc1cc(C(=O)Nc2cc([C@H]3CC[C@@H](OC(=O)NC(C)C)C3)[nH]n2)n(C)n1 [Example 13, (1R,3S)-3-[3-({[3-(methoxymethyl)-1-methyl-1H-pyrazol-5-yl]carbonyl}amino)-1H-pyrazol-5-yl]cyclopentyl propan-2-ylcarbamate] | 465 nM | 177 nM | 538 nM | – | –
CCC(CO)CNC(=O)O[C@@H]1CC[C@H](c2cc(NC(=O)Cc3cnc(C)s3)n[nH]2)C1 (single isomer, unassigned) [Example 528] | – | – | – | 1.11 nM | 3.6 nM
Cc1cnc(CC(=O)Nc2cc([C@H]3CC[C@@H](OC(=O)NC(C)CC(F)(F)F)C3)[nH]n2)o1 (single isomer, unassigned) [Example 81] | – | – | – | 1.48 nM | 32.9 nM
Cc1ccc(CC(=O)Nc2cc([C@H]3CC[C@@H](OC(=O)NC(C)CC(F)(F)F)C3)[nH]n2)cn1 (single isomer, unassigned) [Example 75] | – | – | – | 0.26 nM | 9.59 nM
CC(CC(F)(F)F)N(C)C(=O)O[C@@H]1CC[C@H](c2cc(NC(=O)Cc3cnn(C)c3)n[nH]2)C1 (single isomer, unassigned) [Example 414] | – | – | – | 0.42 nM | 3.44 nM
CC1(NC(=O)O[C@@H]2CC[C@H](c3cc(NC(=O)Cc4cnc(C(F)(F)F)cn4)n[nH]3)C2)CCOC1 (single isomer, unassigned) [Example 494] | – | – | – | 1.02 nM | 53.3 nM
Cc1cnc(CC(=O)Nc2cc([C@@H]3CC[C@H](OC(=O)NC4(C)CCOC4)C3)[nH]n2)o1 (single isomer, unassigned) [Example 476] | – | – | – | 0.45 nM | 30.9 nM
Cc1cnc(CC(=O)Nc2cc([C@H]3CC[C@@H](OC(=O)NC(C)CC(F)(F)F)C3)[nH]n2)cn1 (single isomer, unassigned) [Example 74] | – | – | – | 0.3 nM | 13.2 nM
Cc1ncc(CC(=O)Nc2cc([C@H]3CC[C@@H](OC(=O)N4C[C@@H](C#N)[C@@H]4C)C3)[nH]n2)s1 (single isomer, unassigned) [Example 160] | – | – | – | 0.15 nM | 1.72 nM
CCC(CO)CNC(=O)O[C@@H]1CC[C@H](c2cc(NC(=O)Cc3cnc(C)s3)n[nH]2)C1 (single isomer, unassigned) [Example 529] | – | – | – | 0.73 nM | 3.92 nM
C[C@H](F)[C@H](C)NC(=O)O[C@@H]1CC[C@H](c2cc(NC(=O)Cc3cnn(C)c3)n[nH]2)C1 (single isomer, unassigned) [Example 382, (1R,3S)-3-(3-{[(1-methyl-1H-pyrazol-4-yl)acetyl]amino}-1H-pyrazol-5-yl)cyclopentyl [(2S*,3S*)-3-fluorobutan-2-yl]carbamate] | – | – | – | 0.77 nM | 74.2 nM
CCC(CO)CNC(=O)O[C@@H]1CC[C@H](c2cc(NC(=O)Cc3cc(F)cc(F)c3)n[nH]2)C1 (single isomer, unassigned) [Example 537] | – | – | – | 1.34 nM | 10.7 nM
COc1ccc(CC(=O)Nc2cc([C@H]3CC[C@@H](OC(=O)N4C[C@@H](C#N)[C@@H]4C)C3)[nH]n2)cn1 (single isomer, unassigned) [Example 158] | – | – | – | 0.17 nM | 0.78 nM
Cc1ncc(CC(=O)Nc2cc([C@H]3CC[C@@H](OC(=O)NC4(C)CCOC4)C3)[nH]n2)s1 (single isomer, unassigned) [Example 482] | – | – | – | 0.55 nM | 36.2 nM
CC1(NC(=O)O[C@@H]2CC[C@H](c3cc(NC(=O)Cc4cnc(C(F)(F)F)cn4)n[nH]3)C2)CCOC1 (single isomer, unassigned) [Example 493] | – | – | – | 0.98 nM | 157 nM
COc1cnc(CC(=O)Nc2cc([C@H]3CC[C@@H](OC(=O)NC4(C)CC4)C3)[nH]n2)cn1 [Example 6, (1R,3S)-3-(3-{[(5-methoxypyrazin-2-yl)acetyl]amino}-1H-pyrazol-5-yl)cyclopentyl (1-methylcyclopropyl)carbamate] | – | – | – | 0.38 nM | 32.3 nM
Cc1ccc(C(=O)Nc2cc([C@H]3CC[C@@H](OC(=O)NC(C)CC(F)(F)F)C3)[nH]n2)cn1 (single isomer, unassigned) [Example 70] | – | – | – | 0.35 nM | 31.3 nM
COc1cc(CC(=O)Nc2cc([C@H]3CC[C@@H](OC(=O)NC(C)CC(F)F)C3)[nH]n2)ccn1 (single isomer, unassigned) [Example 98] | – | – | – | 0.33 nM | 21.6 nM
CCC1(C)CCN1C(=O)O[C@@H]1CC[C@H](c2cc(NC(=O)Cc3cc(C)no3)n[nH]2)C1 (single isomer, unassigned) [Example 604] | – | – | – | 0.08 nM | 5 nM
C[C@H]1[C@H](C#N)CN1C(=O)O[C@@H]1CC[C@H](c2cc(NC(=O)Cc3ccccc3)n[nH]2)C1 (single isomer, unassigned) [Example 161] | – | – | – | 0.15 nM | 5.93 nM
Cc1cc(CC(=O)Nc2cc([C@H]3CC[C@@H](OC(=O)N4CCC4C)C3)[nH]n2)on1 (single isomer, unassigned) [Example 589] | – | – | – | 0.59 nM | 18.2 nM

Compound | Ki [1] | Ki [2] | Ki [3] | Ki [4] | Ki [5]
Cc1cc(CC(=O)Nc2cc([C@H]3CC[C@@H](OC(=O)NC(C)CC(F)(F)F)C3)[nH]n2)on1 (single isomer, unassigned) [Example 72] | – | – | – | 0.15 nM | 12.8 nM
Cc1ncc(CC(=O)Nc2cc([C@H]3CC[C@@H](OC(=O)NC(C)CC(F)(F)F)C3)[nH]n2)s1 (single isomer, unassigned) [Example 80] | – | – | – | 0.15 nM | 8.85 nM
CC(CC(F)(F)F)NC(=O)O[C@@H]1CC[C@H](c2cc(NC(=O)Cc3ccn(C)n3)n[nH]2)C1 (single isomer, unassigned) [Example 66] | – | – | – | 0.17 nM | 17.9 nM
COc1ccc(CC(=O)Nc2cc([C@H]3CC[C@@H](OC(=O)NC4(C)CCOC4)C3)[nH]n2)cn1 (single isomer, unassigned) [Example 123] | – | – | – | 0.13 nM | 8.87 nM
CCCNC(=O)O[C@H]1CC[C@@H](c2cc(NC(=O)C3COc4ccccc43)n[nH]2)C1 (single isomer, unassigned) [Example 25] | – | – | – | 2.7 nM | 135 nM
COCc1cc(C(=O)Nc2cc([C@H]3CC[C@@H](OC(=O)NC(C)CC(F)(F)F)C3)[nH]n2)n(C)n1 (single isomer, unassigned) [Example 10] | – | – | – | 0.25 nM | 101 nM
COc1cc(CC(=O)Nc2cc([C@H]3CC[C@@H](OC(=O)NC(C)CC(F)(F)F)C3)[nH]n2)ccn1 (single isomer, unassigned) [Example 78] | – | – | – | 0.15 nM | 8.9 nM
CC(CC(F)(F)F)NC(=O)O[C@@H]1CC[C@H](c2cc(NC(=O)Cc3cnco3)n[nH]2)C1 (single isomer, unassigned) [Example 84] | – | – | – | 0.1 nM | 12 nM
COCc1cc(C(=O)Nc2cc([C@H]3CC[C@@H](OC(=O)NC4(C)CCOC4)C3)[nH]n2)n(C)n1 (single isomer, unassigned) [Example 487] | – | – | – | 0.67 nM | > 47.6 nM
Cc1cc(CC(=O)Nc2cc([C@H]3CC[C@@H](OC(=O)NC(C)CC(F)(F)F)C3)[nH]n2)on1 (single isomer, unassigned) [Example 71] | – | – | – | 1.01 nM | 33.8 nM
CC[C@H](C)NC(=O)O[C@@H]1CC[C@H](c2cc(NC(=O)Cc3ccno3)n[nH]2)C1 [Example 16, (1R,3S)-3-{3-[(1,2-oxazol-5-ylacetyl)amino]-1H-pyrazol-5-yl}cyclopentyl (2S)-butan-2-ylcarbamate] | – | – | – | 0.37 nM | 51.7 nM
Cc1c(CC(=O)Nc2cc([C@H]3CC[C@@H](OC(=O)NC(C)CC(F)(F)F)C3)[nH]n2)cnn1C (single isomer, unassigned) [Example 401] | – | – | – | 0.34 nM | 32.9 nM
Cc1ncc(CC(=O)Nc2cc([C@H]3CC[C@@H](OC(=O)NC(C)CC(F)(F)F)C3)[nH]n2)s1 (single isomer, unassigned) [Example 79] | – | – | – | 0.54 nM | 16.5 nM
Cc1ccc(CC(=O)Nc2cc([C@H]3CC[C@@H](OC(=O)NC(C)C(C)(F)F)C3)[nH]n2)cn1 (single isomer, unassigned) [Example 389] | – | – | – | 0.83 nM | 18.3 nM
CC(CC(F)(F)F)NC(=O)O[C@@H]1CC[C@H](c2cc(NC(=O)c3ccnn3CCN(C)C)[nH]n2)C1 (single isomer, unassigned) [Example 410] | – | – | – | 0.42 nM | 55.5 nM
Cc1cnc(CC(=O)Nc2cc([C@H]3CC[C@@H](OC(=O)NC(C)CC(F)F)C3)[nH]n2)o1 (single isomer, unassigned) [Example 97] | – | – | – | 0.39 nM | 18 nM
COc1ccc(CC(=O)Nc2cc([C@H]3CC[C@@H](OC(=O)N4CCC4C)C3)[nH]n2)cn1 (single isomer, unassigned) [Example 151] | – | – | – | 0.15 nM | 3.89 nM
CC(CC(F)(F)F)N(C)C(=O)O[C@@H]1CC[C@H](c2cc(NC(=O)Cc3ccno3)n[nH]2)C1 (single isomer, unassigned) [Example 90] | – | – | – | 0.23 nM | 2.36 nM
Cc1ccc(CC(=O)Nc2cc([C@H]3CC[C@@H](OC(=O)NC(C)CC(F)(F)F)C3)[nH]n2)cn1 (single isomer, unassigned) [Example 76] | – | – | – | 0.1 nM | 4.96 nM
CCC(NC(=O)O[C@@H]1CC[C@H](c2cc(NC(=O)Cc3cnc(C)s3)n[nH]2)C1)C(F)(F)F (single isomer, unassigned) [Example 403] | – | – | – | 1.76 nM | 76.1 nM
CC1(NC(=O)O[C@@H]2CC[C@H](c3cc(NC(=O)Cc4cc(F)cc(F)c4)n[nH]3)C2)CCOC1 (single isomer, unassigned) [Example 121] | – | – | – | 0.08 nM | 19.4 nM

From patent publication US11014911B2, “CDK2 inhibitors” (Pfizer Inc., priority 2019, dated 2021)
